According to ChEMBL document CHEMBL3860055, “Design, synthesis and in vitro evaluation of amidoximes as histone deacetylase inhibitors for cancer therapy” (Bioorg Med Chem Lett, 2016):
pEC50: −log10 of the molar value.

Key:
[1] = Antiproliferative activity against human A549 cells measured after 72 hrs by WST1 assay; format: functional, cell-based; details: A549, 72 h
[2] = molecular target: Histone deacetylase (HDAC1 and HDAC2) (Homo sapiens, UniProt Q13547+Q92769); assay: Inhibition of HDAC1/HDAC2 in human HeLa cell nuclear extract preincubated for 20 mins followed by addition of HDAC green as substrate measured after 60 mins by fluorescence analysis; format: cell-based
[3] = Antiproliferative activity against human HCT116 cells measured after 72 hrs by WST1 assay; format: functional, cell-based; details: HCT-116, 72 h
[4] = Cell cycle arrest in human A549 cells assessed as accumulation at S-phase at 26 uM measured after 24 hrs by propidium iodide staining based flow cytometric analysis (reference value: 7%); format: functional
[5] = Cell cycle arrest in human A549 cells assessed as accumulation at S-phase at 157 uM measured after 24 hrs by propidium iodide staining based flow cytometric analysis (reference value: 7%); format: functional
[6] = Cell cycle arrest in human A549 cells assessed as accumulation at G2/M-phase at 26 uM measured after 24 hrs by propidium iodide staining based flow cytometric analysis (reference value: 27%); format: functional
[7] = Cell cycle arrest in human A549 cells assessed as accumulation at G2/M-phase measured after 24 hrs by propidium iodide staining based flow cytometric analysis; format: functional
[8] = Cell cycle arrest in human A549 cells assessed as accumulation at G2/M-phase at 157 uM measured after 24 hrs by propidium iodide staining based flow cytometric analysis (reference value: 27%); format: functional
[9] = Cell cycle arrest in human HCT116 cells assessed as accumulation at G1-phase at 157 uM measured after 24 hrs by propidium iodide staining based flow cytometric analysis (reference value: 59%); format: functional; details: HCT-116
[10] = Cell cycle arrest in human HCT116 cells assessed as accumulation at S-phase at 157 uM measured after 24 hrs by propidium iodide staining based flow cytometric analysis (reference value: 8%); format: functional; details: HCT-116
[11] = Cell cycle arrest in human A549 cells assessed as accumulation at G1-phase at 26 uM measured after 24 hrs by propidium iodide staining based flow cytometric analysis (reference value: 63%); format: functional
[12] = Cell cycle arrest in human A549 cells assessed as accumulation at G1-phase at 157 uM measured after 24 hrs by propidium iodide staining based flow cytometric analysis (reference value: 63%); format: functional
[13] = Cell cycle arrest in human HCT116 cells assessed as accumulation at G2/M-phase at 157 uM measured after 24 hrs by propidium iodide staining based flow cytometric analysis (reference value: 30%); format: functional; details: HCT-116
[14] = Cell cycle arrest in human HCT116 cells assessed as accumulation at S-phase at 26 uM measured after 24 hrs by propidium iodide staining based flow cytometric analysis (reference value: 8%); format: functional; details: HCT-116
[15] = Cell cycle arrest in human HCT116 cells assessed as accumulation at G2/M-phase at 26 uM measured after 24 hrs by propidium iodide staining based flow cytometric analysis (reference value: 30%); format: functional; details: HCT-116
[16] = Cell cycle arrest in human HCT116 cells assessed as accumulation at G1-phase at 26 uM measured after 24 hrs by propidium iodide staining based flow cytometric analysis (reference value: 59%); format: functional; details: HCT-116

Row | SMILES | IC50 [2] [µM] | pEC50 [1] | pEC50 [3] | also measured
1 | O=C(NCCc1ccccc1)Nc1ccc(C(=O)NO)cc1 | 0.582 | < 3.00 | 3.76 | –
2 | CCCCCCNCC(=O)Nc1ccc(/C(N)=N/O)cc1 | 0.381 | 3.18 | 3.91 | –
3 | CCCCNCC(=O)Nc1ccc(/C(N)=N/O)cc1 | 0.282 | 3.40 | 4.08 | –
4 | CCCCCCNCCCCC(=O)Nc1ccc(/C(N)=N/O)cc1 | > 1 | < 3.00 | < 3.00 | –
5 | CCCCNCCCCC(=O)Nc1ccc(/C(N)=N/O)cc1 | > 1 | < 3.00 | 3.29 | –
6 | CCCCCCNCCC(=O)Nc1ccc(/C(N)=N/O)cc1 | 0.602 | < 3.00 | 3.71 | –
7 | CCCCNC(=O)Nc1ccc(/C(N)=N/O)cc1 | 0.591 | < 3.00 | 3.73 | –
8 | CCCCCCNCCCC(=O)Nc1ccc(/C(N)=N/O)cc1 | > 1 | < 3.00 | 3.51 | –
9 | CCCCCCNC(=O)Nc1ccc(/C(N)=N/O)cc1 | 0.599 | < 3.00 | 3.71 | –
10 | CCCCNCCCC(=O)Nc1ccc(/C(N)=N/O)cc1 | 0.723 | < 3.00 | 3.57 | –

The next lines start with results.

Row | IC50 [2] [µM] | SMILES | pEC50 [1] | pEC50 [3] | also measured
11 | 0.273 | N/C(=N\O)c1ccc(NC(=O)CCNCCc2ccccc2)cc1 | 3.48 | 4.16 | –
12 | 0.528 | CCCCNCCC(=O)Nc1ccc(/C(N)=N/O)cc1 | 3.06 | 3.82 | –
13 | 0.304 | N/C(=N\O)c1ccc(NC(=O)NCCc2ccccc2)cc1 | 3.33 | 4.04 | –
14 | 0.697 | N/C(=N\O)c1ccc(NC(=O)CCCNCCc2ccccc2)cc1 | < 3.00 | 3.66 | –
15 | 0.093 | N/C(=N\O)c1ccc(NC(=O)CNCCc2ccccc2)cc1 | 3.80 | 4.59 | Activity [4]: 7%; Activity [5]: 9%; Activity [6]: 36%; Activity [7]: Dose-dependent effect; Activity [8]: 68%; Activity [9]: 3%; Activity [10]: 5%; Activity [11]: 54%; Activity [12]: 22%; Activity [13]: 87%; Activity [14]: 7%; Activity [15]: 58%; Activity [16]: 31%
16 | > 1 | N/C(=N\O)c1ccc(NC(=O)CCCCNCCc2ccccc2)cc1 | < 3.00 | 3.16 | –
